pIC50: −log10 of the molar value.
Key:
Type in all cases: biochemical
[1] = molecular target: PLK2 (Homo sapiens, UniProt Q9NYY3); assay: PLK TR-FRET peptide assay, PLK2; conditions: for pIC50: PLK TR-FRET peptide assay, GST-PLK2, 60 min reaction, read-out: Plk2 IC50; for relative PLK2 activity of the enantiomers: compared with the opposite enantiomer
[2] = molecular target: PLK3 (Homo sapiens, UniProt Q9H4B4); assay: PLK TR-FRET peptide assay, PLK3; conditions: GST-PLK3, 15 min reaction, read-out: Plk3 IC50
PLK3, sequence (Q9H4B4 whole entry): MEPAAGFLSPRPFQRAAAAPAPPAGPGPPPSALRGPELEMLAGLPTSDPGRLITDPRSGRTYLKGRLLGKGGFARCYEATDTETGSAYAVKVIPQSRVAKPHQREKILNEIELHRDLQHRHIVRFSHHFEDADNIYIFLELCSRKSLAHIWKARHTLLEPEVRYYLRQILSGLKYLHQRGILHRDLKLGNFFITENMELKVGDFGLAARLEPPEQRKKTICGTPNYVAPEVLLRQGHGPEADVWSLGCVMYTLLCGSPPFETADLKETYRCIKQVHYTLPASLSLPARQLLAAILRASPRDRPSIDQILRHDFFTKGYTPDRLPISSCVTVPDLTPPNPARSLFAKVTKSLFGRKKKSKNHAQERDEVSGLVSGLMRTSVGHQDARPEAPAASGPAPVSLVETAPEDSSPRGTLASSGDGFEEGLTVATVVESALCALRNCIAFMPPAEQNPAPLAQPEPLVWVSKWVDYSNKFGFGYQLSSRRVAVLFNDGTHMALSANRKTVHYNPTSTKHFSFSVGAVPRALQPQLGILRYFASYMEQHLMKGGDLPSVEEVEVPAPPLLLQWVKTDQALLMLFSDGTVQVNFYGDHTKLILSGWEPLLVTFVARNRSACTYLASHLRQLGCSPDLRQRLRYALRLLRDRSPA

[3] = molecular target: PLK1 (Homo sapiens, UniProt P53350); assay: PLK TR-FRET peptide assay, PLK1; conditions: GST-PLK1, 60 min reaction
PLK1, sequence (P53350 whole entry): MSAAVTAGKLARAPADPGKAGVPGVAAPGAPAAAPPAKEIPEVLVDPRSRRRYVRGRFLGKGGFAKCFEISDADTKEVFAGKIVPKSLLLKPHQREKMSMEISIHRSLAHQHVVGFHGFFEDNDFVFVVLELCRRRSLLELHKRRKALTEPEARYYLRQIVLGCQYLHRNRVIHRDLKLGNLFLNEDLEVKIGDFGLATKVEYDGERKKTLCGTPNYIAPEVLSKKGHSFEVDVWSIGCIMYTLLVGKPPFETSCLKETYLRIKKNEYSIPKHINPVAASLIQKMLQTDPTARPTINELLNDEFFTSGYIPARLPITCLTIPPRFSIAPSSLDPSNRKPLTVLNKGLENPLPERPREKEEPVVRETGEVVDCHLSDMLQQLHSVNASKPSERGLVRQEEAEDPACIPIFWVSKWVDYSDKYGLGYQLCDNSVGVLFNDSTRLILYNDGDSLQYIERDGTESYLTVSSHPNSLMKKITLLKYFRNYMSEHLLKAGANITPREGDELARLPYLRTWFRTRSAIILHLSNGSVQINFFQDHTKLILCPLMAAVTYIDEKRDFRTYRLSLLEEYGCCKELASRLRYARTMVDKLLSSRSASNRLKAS

PLK2, sequence (Q9NYY3 whole entry): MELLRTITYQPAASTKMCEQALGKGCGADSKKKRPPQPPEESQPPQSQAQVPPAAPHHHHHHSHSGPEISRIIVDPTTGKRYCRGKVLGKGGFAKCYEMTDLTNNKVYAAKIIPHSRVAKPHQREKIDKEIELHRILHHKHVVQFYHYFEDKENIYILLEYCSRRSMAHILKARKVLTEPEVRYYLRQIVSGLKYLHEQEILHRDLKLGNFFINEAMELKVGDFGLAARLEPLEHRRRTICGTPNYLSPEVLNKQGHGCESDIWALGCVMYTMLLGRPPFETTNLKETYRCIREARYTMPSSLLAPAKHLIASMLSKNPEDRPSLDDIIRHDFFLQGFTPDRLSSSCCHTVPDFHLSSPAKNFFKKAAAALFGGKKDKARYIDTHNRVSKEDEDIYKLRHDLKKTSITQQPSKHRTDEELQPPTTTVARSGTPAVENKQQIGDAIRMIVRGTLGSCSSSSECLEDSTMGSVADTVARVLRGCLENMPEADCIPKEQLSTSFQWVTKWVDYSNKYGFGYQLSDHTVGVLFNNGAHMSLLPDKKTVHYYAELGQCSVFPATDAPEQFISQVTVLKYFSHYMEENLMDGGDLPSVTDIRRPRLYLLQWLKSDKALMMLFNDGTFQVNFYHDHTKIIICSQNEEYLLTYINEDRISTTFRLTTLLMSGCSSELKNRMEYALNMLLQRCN

pIC50 [1]	pIC50 [2]	pIC50 [3]	relative PLK2 activity of the enantiomers [1]	Structure (SMILES)
> 6.00	4.30 to 5.00	5.00 to 6.00	–	CC[C@@H]1C(=O)N(C)c2cnc(-c3nccs3)nc2N1C1CCCC1 [Example 330, (R)-8-cyclopentyl-7-ethyl-5-methyl-2-(thiazol-2-yl)-7,8-dihydropteridin-6(5H)-one]
> 6.00	4.30 to 5.00	5.00 to 6.00	–	CC[C@@H]1C(=O)N(C)c2cnc(-n3ccnc3-c3cccc(C#N)c3)nc2N1C(C)C [Example 228, (R)-3-(1-(7-ethyl-8-isopropyl-5-methyl-6-oxo-5,6,7,8-tetrahydropteridin-2-yl)-1H-imidazol-2-yl)benzonitrile]
4.30 to 5.00	< 4.30	< 4.30	–	CC[C@@]12CCCN1c1nc(-n3ccnc3)ncc1N(C)C2=O [Example 285, (S)-6a-ethyl-2-(1H-imidazol-1-yl)-5-methyl-6a,7,8,9-tetrahydropyrrolo[2,1-h]pteridin-6(5H)-one]
> 6.00	5.00 to 6.00	5.00 to 6.00	–	CCC1C(=O)N(C)c2cnc(-c3cn[nH]c3-c3nccs3)nc2N1c1cccc(C#N)c1 (stereo not drawn) [Example 372, 3-(7-ethyl-5-methyl-6-oxo-2-(5-(thiazol-2-yl)-1H-pyrazol-4-yl)-6,7-dihydropteridin-8(5H)-yl)benzonitrile]
> 6.00	4.30 to 5.00	4.30 to 5.00	more active compound	CC[C@@]12CCCCN1c1nc(-n3ccnc3-c3ccc(F)cc3F)ncc1N(C)C2=O [Example 269, (S)-2-(2-(2,4-difluorophenyl)-1H-imidazol-1-yl)-6a-ethyl-5-methyl-7,8,9,10-tetrahydro-5H-pyrido[2,1-h]pteridin-6(6aH)-one]
> 6.00	4.30 to 5.00	5.00 to 6.00	–	CC[C@@H]1C(=O)N(C)c2cnc(-n3ccnc3-c3ccc(F)cc3F)nc2N1C1CC(F)(F)C1 [Example 260, (R)-8-(3,3-difluorocyclobutyl)-2-(2-(2,4-difluorophenyl)-1H-imidazol-1-yl)-7-ethyl-5-methyl-7,8-dihydropteridin-6(5H)-one]
> 6.00	4.30 to 5.00	5.00 to 6.00	more active compound	CC[C@@]12CCCCN1c1nc(-n3ccnc3-c3cccc(F)c3)ncc1N(C)C2=O [Example 264, (S)-6a-ethyl-2-(2-(3-fluorophenyl)-1H-imidazol-1-yl)-5-methyl-7,8,9,10-tetrahydro-5H-pyrido[2,1-h]pteridin-6(6aH)-one]
> 6.00	5.00 to 6.00	5.00 to 6.00	–	CC[C@@H]1C(=O)N(C)c2cnc(-n3ccnc3-c3ccc(F)c(Cl)c3)nc2N1C1CCOC1 (stereo partly drawn) [Example 232, (7R)-2-(2-(3-chloro-4-fluorophenyl)-1H-imidazol-1-yl)-7-ethyl-5-methyl-8-(tetrahydrofuran-3-yl)-7,8-dihydropteridin-6(5H)-one]
< 4.30	< 4.30	< 4.30	–	CC[C@@H]1C(=O)N(C)c2cnc(N3CCN(C)CC3)nc2N1C1CCCC1 [Example 210, (R)-8-cyclopentyl-7-ethyl-5-methyl-2-(4-methylpiperazin-1-yl)-7,8-dihydropteridin-6(5H)-one]
> 6.00	5.00 to 6.00	5.00 to 6.00	–	CC[C@@H]1C(=O)N(C)c2cnc(-n3ccnc3-c3ccc(F)cc3)nc2N1CC1CC1 [Example 322, (R)-8-(cyclopropylmethyl)-7-ethyl-2-(2-(4-fluorophenyl)-1H-imidazol-1-yl)-5-methyl-7,8-dihydropteridin-6(5H)-one]
4.30 to 5.00	< 4.30	< 4.30	–	CN1C(=O)C2CC3CC3N2c2nc(-n3ccnc3-c3ccccc3)ncc21 (stereo not drawn) [Example 304, 5-Methyl-2-(2-phenyl-imidazol-1-yl)-7,7a,8,8a-tetrahydro-5H,6aH-1,3,5,8b-tetraaza-cyclopropa[4,5]cyclopenta[1,2-a]naphthalen-6-one]
> 6.00	5.00 to 6.00	5.00 to 6.00	–	CC[C@@H]1CC[C@@]2(CC)C(=O)N(C)c3cnc(-c4cn[nH]c4-c4cscn4)nc3N12 [Example 356, (6aS,9R)-6a,9-diethyl-5-methyl-2-(5-(thiazol-4-yl)-1H-pyrazol-4-yl)-6a,7,8,9-tetrahydropyrrolo[2,1-h]pteridin-6(5H)-one]
> 6.00	4.30 to 5.00	4.30 to 5.00	–	CCC12CCCCN1c1nc(-n3ccnc3-c3ccc(F)cc3F)ncc1N(C)C2=O (racemic) [Example 257, (+/−) 2-(2-(2,4-difluorophenyl)-1H-imidazol-1-yl)-6a-ethyl-5-methyl-7,8,9,10-tetrahydro-5H-pyrido[2,1-h]pteridin-6(6aH)-one]

Continued, compound first:

Structure (SMILES)	pIC50 [1]	pIC50 [2]	pIC50 [3]	relative PLK2 activity of the enantiomers [1]
CC[C@@H]1C(=O)N(C)c2cnc(-c3ccncc3N)nc2N1C1CCCC1 [Example 91, (R)-2-(3-aminopyridin-4-yl)-8-cyclopentyl-7-ethyl-5-methyl-7,8-dihydropteridin-6(5H)-one]	> 6.00	5.00 to 6.00	> 6.00	–
CC[C@@H]1C(=O)N(C)c2cnc(-c3ccncc3CNS(=O)(=O)c3ccccc3)nc2N1C1CCCC1 [Example 125, (R)—N-((4-(8-cyclopentyl-7-ethyl-5-methyl-6-oxo-5,6,7,8-tetrahydropteridin-2-yl)pyridin-3-yl)methyl)benzenesulfonamide]	5.00 to 6.00	4.30 to 5.00	4.30 to 5.00	–
[2H]C([2H])([2H])N1C(=O)[C@@H](C([2H])([2H])C([2H])([2H])[2H])N(C([2H])(C([2H])([2H])[2H])C([2H])([2H])[2H])c2nc(-n3ccnc3-c3ccc(F)cc3)ncc21 [Example 200, (R)-7-perdeuteroethyl-2-(2-(4-fluorophenyl)-1H-imidazol-1-yl)-8-perdeuteroisopropyl-5-trideuteromethyl-7,8-dihydropteridin-6(5H)-one]	> 6.00	5.00 to 6.00	5.00 to 6.00	more active compound
CC[C@@H]1C(=O)N(C)c2cnc(-n3ccnc3-c3ccc(C(F)(F)F)cc3)nc2N1C(C)C [Example 166, (R)-7-ethyl-8-isopropyl-5-methyl-2-(2-(4-(trifluoromethyl)phenyl)-1H-imidazol-1-yl)-7,8-dihydropteridin-6(5H)-one]	> 6.00	4.30 to 5.00	5.00 to 6.00	–
CC[C@@H]1C(=O)N(C)c2cnc(-c3ccncc3CNC(=O)OC)nc2N1C1CCCC1 [Example 121, (R)-methyl (4-(8-cyclopentyl-7-ethyl-5-methyl-6-oxo-5,6,7,8-tetrahydropteridin-2-yl)pyridin-3-yl)methylcarbamate]	5.00 to 6.00	4.30 to 5.00	4.30 to 5.00	–
CC[C@@H]1C(=O)N(C)c2cnc(-c3ccnc(N(C)C)c3)nc2N1C1CCCC1 [Example 21, (R)-8-cyclopentyl-2-(2-(dimethylamino)pyridin-4-yl)-7-ethyl-5-methyl-7,8-dihydropteridin-6(5H)-one]	> 6.00	4.30 to 5.00	> 6.00	–
CCC12CCCCCN1c1nc(-n3ccnc3-c3ccccc3)ncc1N(C)C2=O (racemic) [Example 205, (+/−) 6a-ethyl-5-methyl-2-(2-phenyl-1H-imidazol-1-yl)-6a,7,8,9,10,11-hexahydroazepino[2,1-h]pteridin-6(5H)-one]	> 6.00	4.30 to 5.00	4.30 to 5.00	–
CC[C@@H]1C(=O)N(C)c2cnc(-c3cnoc3-c3ccc(F)cc3)nc2N1C(C)C [Example 173, (R)-7-ethyl-2-(5-(4-fluorophenyl)isoxazol-4-yl)-8-isopropyl-5-methyl-7,8-dihydropteridin-6(5H)-one]	> 6.00	4.30 to 5.00	5.00 to 6.00	–
CC[C@@H]1C(=O)Nc2cnc(-n3cccn3)nc2N1C1CCCC1 [Example 29, (R)-8-cyclopentyl-7-ethyl-2-(1H-pyrazol-1-yl)-7,8-dihydropteridin-6(5H)-one]	< 4.30	< 4.30	< 4.30	–
CC[C@@H]1C(=O)N(C)c2cnc(-c3ccncc3NC(=O)c3ccccc3)nc2N1C(C)C [Example 104, (R)—N-(4-(7-ethyl-8-isopropyl-5-methyl-6-oxo-5,6,7,8-tetrahydropteridin-2-yl)pyridin-3-yl)benzamide]	> 6.00	5.00 to 6.00	5.00 to 6.00	–
CC[C@@H]1C(=O)N(C)c2cnc(-n3ccnc3-c3ccc(F)cc3)nc2N1C1CCC1 [Example 50, (R)-8-cyclobutyl-7-ethyl-2-(2-(4-fluorophenyl)-1H-imidazol-1-yl)-5-methyl-7,8-dihydropteridin-6(5H)-one]	> 6.00	5.00 to 6.00	5.00 to 6.00	–
CC[C@@H]1C(=O)N(C)c2cnc(-c3cccc(S(C)(=O)=O)c3)nc2N1C1CCCC1 [Example 71, (R)-8-cyclopentyl-7-ethyl-5-methyl-2-(3-(methylsulfonyl)phenyl)-7,8-dihydropteridin-6(5H)-one]	5.00 to 6.00	4.30 to 5.00	5.00 to 6.00	–
[2H]C([2H])([2H])N1C(=O)C(C([2H])([2H])C([2H])([2H])[2H])N(C([2H])(C([2H])([2H])[2H])C([2H])([2H])[2H])c2nc(-n3ccnc3-c3cccc(OC(F)(F)F)c3)ncc21 (stereo not drawn) [Example 160, 7-perdeuteroethyl-8-perdeuteroisopropyl-5-trideuteromethyl-2-(2-(3-(trifluoromethoxy)phenyl)-1H-imidazol-1-yl)-7,8-dihydropteridin-6(5H)-one]	> 6.00	4.30 to 5.00	5.00 to 6.00	–
CC[C@@]12CCCN1c1nc(-n3ccnc3-c3nccc4ccccc34)ncc1N(C)C2=O [Example 206, (S)-6a-ethyl-2-(2-(isoquinolin-1-yl)-1H-imidazol-1-yl)-5-methyl-6a,7,8,9-tetrahydropyrrolo[2,1-h]pteridin-6(5H)-one]	5.00 to 6.00	4.30 to 5.00	< 4.30	–

Reference: patent publication US8541418B2, “Inhibitors of polo-like kinase” (Elan Pharmaceutical, Inc., priority 2009, dated 2013)
